Results: paper PMC5515887, “Ruthenium-conjugated chrysin analogues modulate platelet activity, thrombus formation and haemostasis with enhanced efficacy” (Scientific Reports, 2017)
Like-named read-outs stand apart in the source and are kept apart here.

Columns and labels:
[1] = tested on: platelet adhesion (integrins αIIbβ3 and α2β1); experiment: Static platelet adhesion assay on collagen, CRP-XL and fibrinogen; assay type: cell-based, human; details: PRP; static conditions; in the presence and absence of integrilin (4 µM)
Protocol: Integrins αIIbβ3 and α2β1 play critical roles in platelet adhesion to different matrix proteins such as fibrinogen and collagen, respectively.
Micro titre plates (96 well) were coated with 1 μg/100 μL/well of fibrinogen, collagen or CRP-XL followed by incubation at 4 °C for overnight. Following the removal of unbound proteins/peptide, the wells were blocked with 1% bovine serum albumin in modified Tyrodes-HEPES buffer for 1 hour. The plates were then washed three times with modified Tyrode’s-HEPES buffer prior to adding human PRP (1 × 10^8 cells/mL, 50 μL/well) and incubated at room temperature for 1 hour. Non-adhered platelets were discarded and then the wells were washed with modified Tyrodes-HEPES buffer. Citrate lysis buffer (100 μL/well) was added and incubated for 1 hour at room temperature. Finally, 100 μL of 2 M NaOH was added to all the wells to stop the reaction and the absorbance was measured at 405 nm using a Fluostar Optima spectrofluorimeter (BMG Labtech, Germany). Experiments were performed both in the absence and presence of integrilin (4 μM) (an antagonist for integrin αIIbβ3).

washed human platelets = experiment: Platelet uptake by LC-MS; assay type: in vitro ADME; details: 100 μM compound, 5 minutes
Protocol: The compounds taken up by the platelets were extracted with methanol (400 µL). The methanol extract was dried using vacuum centrifugation and reconstituted in 200 µL of methanol for mass spectrometry (LC-MS) analysis.

haemostasis in mice = experiment: Tail bleeding assay; assay type: in vivo, C57BL/6 mice; details: final concentration 25 μM via femoral artery, 5 minutes before tail tip dissection, control 445 seconds
Protocol: Thrombus formation was monitored by capturing Z-stack fluorescent images at every 30 seconds over 10 minutes by fluorescence microscopy. The images shown (A) at different time points and traces (B) are representative of three separate experiments. […] Data represent ± S.D. (n = 8 mice in each group). The p values shown (*p < 0.05 and ***p < 0.001) are as calculated by non-parametric Mann-Whitney test using Graphpad Prism.
Following five minutes incubation, 1 mm of tail tip was dissected and the bleeding time was monitored.
The University of Reading Local Ethical Review Panel and the British Home Office approved the tail-bleeding assay performed in this study. All methods were performed in accordance with the relevant guidelines and regulations. In brief, C57BL/6 mice (9 weeks old; Envigo, UK) were anaesthetized using ketamine (80 mg kg^−1) and xylazine (5 mg kg^−1) administered via intraperitoneal route 20 minutes prior to the experiment and placed on a heated pad (37 °C). […] The tail tip was placed in sterile saline at 37 °C and the time to cessation of bleeding was measured up to 20 minutes.

human whole blood = experiment: In vitro thrombus formation under arterial flow conditions on collagen-coated Vena8 biochips; assay type: cell-based; details: 100 μM compound
Protocol: Platelet activation under arterial flow conditions culminates in the formation of thrombus at the damaged blood vessels and thereby reducing the blood supply to target tissues.
Thrombus formation was monitored by capturing Z-stack fluorescent images at every 30 seconds over 10 minutes by fluorescence microscopy. The images shown (A) at different time points and traces (B) are representative of three separate experiments. […] Data represent ± S.D. (n = 8 mice in each group).
Z-stack images of thrombi were obtained every 30 seconds for up to 10 minutes using a Nikon eclipse (TE2000-U) microscope (Nikon Instruments, UK). The median fluorescence intensity and thrombus volume were calculated by analysing the images using ImageJ.

human washed platelets = experiment: Intracellular calcium mobilisation in washed platelets (Fluo-4 AM); assay type: cell-based; details: CRP-XL 0.5 μg/mL
Protocol: Based on the above results achieved in washed platelets and PRP, chrysin and Ru-thio-chrysin were tested to evaluate their effects on the modulation of calcium mobilisation.
The calcium traces (Ai and Bi) shown are representative of three separate experiments. The maximum fluorescence obtained with each sample was converted into percentages to calculate the level of calcium mobilisation obtained with vehicle and chrysin or Ru-thio-chrysin treated samples.
The intracellular calcium levels in platelets were measured using Fluo-4 AM calcium-sensitive dye by spectrofluorimetry. […] Data were analysed by calculating the maximum level of calcium released in each sample.

[2] = target: T1, human serum albumin (HSA) (Homo sapiens, UniProt P02768); experiment: HSA binding assay (TRANSIL XL HSA binding kit)
T1 construct: purchased Sovicell, Germany
Protocol: HSA binding assay was performed using TRANSIL^XL binding kit (Sovicell, Germany) according to the manufacturer’s protocol. […] The plate was then incubated on a plate shaker at 100 g for 12 minutes followed by centrifugation for 10 minutes at 750 g.

platelets (PRP) = experiment: LDH cytotoxicity assay in PRP; assay type: cell-based, human; details: between 6.25 and 100 μM
Protocol: In order to examine whether the native chrysin and its synthetic derivatives exert any cytotoxic effects in platelets at the concentrations used in this study, the lactate dehydrogenase (LDH) assay was performed using PRP.
The LDH cytotoxicity assay was performed using the LDH Cytotoxicity Assay Kit (Pierce, Thermo Fisher, UK) according to the manufacturer’s instructions. In brief, the PRP was incubated at 37 °C for 30 minutes. […] Following incubation, the reaction mixture (provided in the kit) was added to the PRP and incubated for 30 minutes. The reaction was then stopped using a stop solution provided in the kit. The absorbance of the mixture was measured at 490–650 nm using a Fluostar Optima spectrofluorimeter (BMG Labtech, Germany). Results provided represent duplicate absorbance measures from three separate donors.
Figure S7: Cytotoxic effects of chrysin and its synthetic derivatives in platelets. PRP was treated with different concentrations (as used in other experiments) of chrysin or its synthetic derivatives and the LDH cytotoxicity assay was performed according to the manufacturer’s instructions. The data were obtained using platelets from three separate donors and duplicate measures were used for each donor.
(1 picture or pasted object on this page, not shown here)

[3] = tested on: human platelet-rich plasma; details: PRP; 100 μM compound; CRP-XL 0.5 μg/mL
Excerpt: The calcium traces (Ai and Bi) shown are representative of three separate experiments. […] The platelets were lysed and used for immunoblot analysis to detect the level of AKT phosphorylation at residue S473, FAK phosphorylation at Y397 and phosphorylation of Src at Y527. The level of 14-3-3ζ protein was detected as a loading control. The cropped images of the blots shown here are representative of three separate experiments. The uncropped full length blots are presented in Supplementary Information (Figure S8).

[4] = tested on: inside-out signalling to integrin αIIbβ3; details: PRP, CRP-XL 0.5 μg/mL
Protocol: The level of fluorescence obtained with vehicle control was taken as 100% to calculate the extent of inhibition in chrysin and its derivatives-treated samples. R represents ‘resting’ platelets. Cumulative data represent mean ± S.D. (n = 4). […] Following incubation, clotting was initiated by the addition of 1 U/mL thrombin and the clot retraction was monitored for three hours. The remaining clot weight at three hours was measured to analyse the extent of retraction process. The image shown on the right is representative of four separate experiments. *Indicates significance with respect to controls and ^#indicates significance with respect to the respective chrysin concentrations; p values shown (*^,# p < 0.05, **^,## p < 0.01 and ***^,### p < 0.001) are as calculated by one-way ANOVA using Graphpad Prism.
The platelets (PRP) were treated with a vehicle control [0.1% (v/v) DMSO] or with different concentrations of chrysin and its synthetic derivatives prior to activation with CRP-XL (0.5 µg/mL). The levels of fibrinogen binding and P-selectin exposure were measured using FITC-labelled anti-human fibrinogen antibodies (Dako, UK) and PECy5-labelled CD62P antibodies (BD Biosciences, UK), respectively. The median fluorescence intensity was used to assess the levels of fibrinogen binding and P-selectin exposure on the platelet surface. […]

T1 sequence (P02768 25-609): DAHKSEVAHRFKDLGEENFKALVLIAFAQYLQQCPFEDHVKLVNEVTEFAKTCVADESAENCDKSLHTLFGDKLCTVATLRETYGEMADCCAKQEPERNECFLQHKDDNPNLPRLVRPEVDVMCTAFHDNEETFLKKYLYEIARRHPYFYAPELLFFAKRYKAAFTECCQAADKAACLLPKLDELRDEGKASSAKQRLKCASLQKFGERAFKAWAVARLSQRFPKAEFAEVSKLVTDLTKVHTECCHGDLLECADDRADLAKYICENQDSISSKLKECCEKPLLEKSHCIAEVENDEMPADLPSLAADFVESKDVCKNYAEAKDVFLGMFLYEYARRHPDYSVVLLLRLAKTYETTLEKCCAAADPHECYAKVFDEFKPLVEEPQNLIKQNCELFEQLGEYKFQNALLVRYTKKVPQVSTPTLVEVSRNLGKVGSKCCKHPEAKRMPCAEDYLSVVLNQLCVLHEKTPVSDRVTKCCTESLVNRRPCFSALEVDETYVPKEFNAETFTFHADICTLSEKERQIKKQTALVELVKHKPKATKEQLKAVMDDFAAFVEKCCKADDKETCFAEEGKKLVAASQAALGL

Row | Compound | effect on platelet adhesion to collagen, CRP-XL or fibrinogen [1] | uptake in platelets (washed human platelets) | bleeding time (average) (haemostasis in mice) | inhibition at 100 µM (human whole blood; 10 min, 20 dynes/cm^2, read-out: inhibition of thrombus growth and volume) | effect on calcium mobilisation in washed platelets (human washed platelets) | Kd [2] | fraction unbound at 12 min, 50 µM ([2]; human, plasma) | cytotoxic effects in platelets (LDH) (platelets (PRP)) | reduction in calcium mobilisation [3] | inhibition of thrombus growth and volume (human whole blood; 20 dynes/cm^2, 10 minutes) | fraction bound to plasma (fb) ([2]; TRANSIL XL HSA binding kit) | Kd ([2]; TRANSIL XL HSA binding kit, 50 µM compound, read-out: binding affinity (Kd) to HSA) | inhibition of fibrinogen binding ([4]; 6.25 μM compound) | inhibition of fibrinogen binding ([4]; 100 μM compound)
1 | O=c1cc(-c2ccccc2)oc2cc(O)cc(O)c12 [chrysin] | did not affect platelet adhesion | 6.86 ± 0.27 µM | 901 s | ~50% | greater inhibitory effects on calcium mobilisation than Ru-thio-chrysin | 1.93 µM | 0.003 | did not show significant cytotoxic effects | – | – | – | – | – | –
2 | chlorido [(5-oxo-κO)-7-hydroxy-(2-phenyl)-4H-chromen-4-thionato-κS] (η6-p-cymene)ruthenium(II) [Ru-thio-chrysin] | did not affect platelet adhesion | – | 1096 s | – | – | – | – | – | around 60% | approximately 75% | < 29.6% | 1400 µM | 15–20% | ~90%
